Assay results from patent US20260014235A1, “METHODS OF PROMOTING REMYELINATION” (Mallinckrodt Pharmaceuticals Ireland Limited, priority 2019, published 2026).
Marks after values point to notes of the source that are not given here.

Tested on: mouse model of cuprizone demylelination
Assay: Remyelination in gray matter (hippocampus) via quantification of PLP, cuprizone/rapamycin mouse model
Format: in vivo, C57BL/6 mice
Conditions: 6 weeks treatment after 12 weeks cuprizone co-administered with rapamycin, RCI 10 U/kg
Experimental: The hypothesis that repository corticotropin injection (RCI) accelerates remyelination in a mouse model of cuprizone demylelination was tested. C57BL/6 mice were fed 0.3% cuprizone co-administered with rapamycin for 12 weeks to induce demyelination and inhibit spontaneous remyelination. […] Mice were treated for another 6 weeks with RCI, triiodothyronine (T3, positive control), or vehicle (negative control). Remyelination was assayed in gray matter (hippocampus) via quantification of myelin proteolipid protein (PLP) and in white matter (corpus callosum) via p-Phenylenediamine (PPD) staining. […] Of note-increased remyelination was not observed at higher doses of RCI in this rodent model (data not shown).

N[C@@H](Cc1cc(I)c(Oc2ccc(O)c(I)c2)c(I)c1)C(=O)O [Positive Control, triiodothyronine]
Mean PLP (% Area Covered): 40.8** % Area Covered
